These results are taken from PubChem BioAssay (NCI).

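Five compound concentrations were applied to cells in 96-well plates for 48 hours; endpoints were derived by simple linear interpolation of the resulting dose-response curve. Here, GI50 denotes the concentration required for 50% inhibition of growth. Definition used: TGI = concentration required for complete inhibition of growth.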

Among the test systems are ACHN renal; BT-549 breast; CAKI-1 renal; DU-145 prostate; HCC-2998 colon; RXF 393 renal; SF-268 CNS; SK-MEL-5 melanoma; SW-620 colon; UACC-62 melanoma.
What all share (experiment): NCI tumour cell line growth inhibition, 48 h

Turning to `N#Cc1nc(-c2cccc(Br)c2)cc(-c2ccc(Nc3nc(N4CCCCC4)nc(N4CCCCC4)n3)cc2)c1N`, the GI50 in the assay with ACHN renal was 1.72 µM; with BT-549 breast, 2.02 µM; in the assay with CAKI-1 renal, 1.93 µM; in the assay on DU-145 prostate it was 3.13 µM; with HCC-2998 colon, 2.31 µM; in the assay on RXF 393 renal, 1.34 µM. Also, the GI50 was 3.27 µM in the assay with SF-268 CNS, 1.76 µM with SK-MEL-5 melanoma, 1.53 µM with SW-620 colon and 1.5 µM in the assay with UACC-62 melanoma. Moreover, the TGI in the assay on ACHN renal was found to be 3.3 µM; with BT-549 breast it was 4.36 µM; in the assay with CAKI-1 renal, 5.03 µM; with DU-145 prostate, 10.2 µM; in the assay on HCC-2998 colon, 6.62 µM; in the assay on RXF 393 renal it was 2.99 µM. For the same molecule, the TGI in the assay on SF-268 CNS stood at 21.5 µM; in the assay on SK-MEL-5 melanoma it was 3.18 µM; with SW-620 colon, 3.48 µM; in the assay on UACC-62 melanoma, 3.27 µM.
For the molecule `Cc1cccc2c3c(sc12)C(c1ccc(Cl)cc1)C(C#N)=C(/N=C/c1ccc(Cl)cc1)O3` (stereo not given), the GI50 in the assay on ACHN renal is 0.858 µM; with BT-549 breast, 1.38 µM; in the assay with CAKI-1 renal, 0.265 µM; in the assay with DU-145 prostate, 0.485 µM; in the assay on HCC-2998 colon it was 1.04 µM; in the assay on RXF 393 renal, 0.24 µM. The GI50 in the assay with SF-268 CNS was 1.93 µM; in the assay with SK-MEL-5 melanoma, 0.47 µM; in the assay with SW-620 colon, 0.434 µM; in the assay on UACC-62 melanoma it was 0.337 µM. In addition, the TGI in the assay on ACHN renal was over 100 µM; in the assay on BT-549 breast, over 57.9 µM; in the assay with CAKI-1 renal, 20.7 µM; in the assay on DU-145 prostate it was over 100 µM; in the assay on HCC-2998 colon it was 11.2 µM; in the assay on RXF 393 renal it was 0.776 µM. Besides, the TGI in the assay with SF-268 CNS was 46.2 µM; in the assay with SK-MEL-5 melanoma it was over 100 µM; with SW-620 colon, over 100 µM; with UACC-62 melanoma it was 12.7 µM.
In the case of `O=C(Nc1ccccc1Cl)c1cnc2ccc(C3CCNCC3)cn12`, the GI50 in the assay on ACHN renal was 1.02 µM; in the assay on BT-549 breast, over 73.7 µM; in the assay on CAKI-1 renal it was 1.51 µM; in the assay on DU-145 prostate it was 6.62 µM; in the assay on HCC-2998 colon, over 100 µM; with RXF 393 renal, 0.802 µM. The GI50 with SF-268 CNS is 9.04 µM; in the assay on SK-MEL-5 melanoma, 13 µM; in the assay with SW-620 colon, over 100 µM; in the assay with UACC-62 melanoma, 14.2 µM. The TGI is over 46.5 µM in the assay with ACHN renal; over 100 µM in the assay on BT-549 breast; 12 µM in the assay with CAKI-1 renal; over 100 µM with DU-145 prostate; over 100 µM in the assay on HCC-2998 colon; 4.84 µM in the assay on RXF 393 renal. Besides, the TGI with SF-268 CNS was over 100 µM; with SK-MEL-5 melanoma it was 26.6 µM; in the assay on SW-620 colon it was over 100 µM; with UACC-62 melanoma, 56.7 µM.
`Clc1nc(Cl)c2ncn(C/C=C\Cn3cnc4c(Cl)nc(Cl)nc43)c2n1`: the GI50 in the assay on ACHN renal was 1.97 µM; in the assay with BT-549 breast, 2.03 µM; with CAKI-1 renal, 1.16 µM; with DU-145 prostate, 1.54 µM; with HCC-2998 colon it was 1.67 µM; in the assay with RXF 393 renal, 2.18 µM. Also, the GI50 in the assay with SF-268 CNS is 2.24 µM; in the assay with SK-MEL-5 melanoma, 2.92 µM; with SW-620 colon, 1.41 µM; in the assay with UACC-62 melanoma it was 2.04 µM. Besides, the TGI with ACHN renal stood at 3.46 µM; in the assay with BT-549 breast it was 5.01 µM; in the assay with CAKI-1 renal, 2.41 µM; with DU-145 prostate, 2.89 µM; with HCC-2998 colon, 3.45 µM; in the assay on RXF 393 renal, 4.35 µM. For the same molecule, the TGI with SF-268 CNS came to 5.71 µM; in the assay with SK-MEL-5 melanoma it was 10.5 µM; with SW-620 colon it was 2.99 µM; in the assay on UACC-62 melanoma it was 4.19 µM.
For the molecule `Cn1c2ccccc2c2c(=O)n(CCCC(=O)NCC(=O)OC(=NC3CCCCC3)NC3CCCCC3)c3c(-c4ccccc4)nnn3c21`, the GI50 in the assay on ACHN renal is 26.3 µM; in the assay on BT-549 breast, 27 µM; with CAKI-1 renal it was 32.1 µM; in the assay with DU-145 prostate, 18.4 µM; in the assay with HCC-2998 colon, 10.2 µM; in the assay with RXF 393 renal it was 11.1 µM. Moreover, the GI50 in the assay on SF-268 CNS is 15 µM; in the assay with SK-MEL-5 melanoma, 5.98 µM; in the assay with SW-620 colon, 3.76 µM; with UACC-62 melanoma, 25.8 µM. Also, the TGI in the assay on ACHN renal is over 100 µM; in the assay on BT-549 breast, over 100 µM; in the assay with CAKI-1 renal, over 100 µM; in the assay with DU-145 prostate, over 100 µM; in the assay with HCC-2998 colon it was 26.8 µM; in the assay on RXF 393 renal it was 36.9 µM. For the same molecule, the TGI was over 100 µM with SF-268 CNS, 31.6 µM with SK-MEL-5 melanoma, over 100 µM in the assay on SW-620 colon and over 100 µM in the assay on UACC-62 melanoma.
As to `C=C1C(=O)O[C@H]2[C@H]1CC/C(COC(=O)NCCc1ccc(OC)cc1)=C\CC[C@@]1(C)O[C@@H]21`, the GI50 in the assay on ACHN renal was 1.72 µM; in the assay with BT-549 breast, 2.12 µM; in the assay on CAKI-1 renal it was 2.52 µM; in the assay on DU-145 prostate it was 1.92 µM; in the assay with HCC-2998 colon, 2.48 µM; in the assay with RXF 393 renal it was 1.55 µM. Further, the GI50 with SF-268 CNS is 10.6 µM; in the assay with SK-MEL-5 melanoma, 6.23 µM; with SW-620 colon, 2.51 µM; with UACC-62 melanoma, 1.25 µM. The TGI in the assay with ACHN renal is 3.55 µM; in the assay with BT-549 breast, 6.41 µM; in the assay on CAKI-1 renal, 7.53 µM; in the assay with DU-145 prostate, 5.16 µM; in the assay on HCC-2998 colon, 5.63 µM; with RXF 393 renal, 3.11 µM. For the same molecule, the TGI with SF-268 CNS is 23.3 µM; in the assay on SK-MEL-5 melanoma it was 19.1 µM; in the assay with SW-620 colon, 6.97 µM; with UACC-62 melanoma, 3.05 µM.
On to `CC1(C)OC2C(CO)OC(n3ccc(=O)[nH]c3=O)C2O1` (stereo not given), for which the TGI with ACHN renal, with BT-549 breast, with CAKI-1 renal, with DU-145 prostate, in the assay on HCC-2998 colon and in the assay with RXF 393 renal was over 100 µM each time. The TGI with SF-268 CNS, in the assay with SK-MEL-5 melanoma, with SW-620 colon and in the assay on UACC-62 melanoma was over 100 µM throughout.
